Patent US8207176B2 (Glaxo Group Limited, priority 2005, dated 2012)
Counter-ions that a name gives are not always drawn.

What follows are compounds tested against T1, Recombinant human p38α (MKK6-activated) (Homo sapiens, UniProt Q16539) (assay: Time-resolved fluorescence resonance energy transfer (TR-FRET) kinase assay (standard or low volume)). Conditions: MKK6-activated p38α 100 pM, GST-ATF2 400 nM, 120 minutes at room temperature; either assay format.
T1 construct: His; made in house
Format: biochemical
Set-up: key: Compounds are considered active in this assay if they demonstrate a pIC50 of greater than 4.6 up to about a pIC50 of greater than 10.0
Method: It is noted that there are two assay formats shown above for the Fluorescence anisotropy kinase binding assay. The only difference between these two assays is the volume used and the plate type. […] The results described herein may have been performed in either assay format and are not differentiated as to which. […] TR-FRET Assay Time-Resolved Fluorescence Resonance Energy Transfer Kinase Standard Assay Recombinant human p38α was expressed as a His-tagged protein. To activate this protein, 3 μM unactivated p38α was incubated in 200 mM Hepes pH 7.4, 625 mM NaCl, 1 mM DTT with 27 nM active MKK6 (Upstate), 1 mM ATP and 10 mM MgCl2 The activity of the MKK6-activated p38α was assessed using a time-resolved fluorescence resonance energy transfer (TR-FRET) assay. Biotinylated-GST-ATF2 (residues 19-96, 400 nM final), ATP ([…]) and MgCl2 (5 mM final) in assay buffer (40 mM HEPES pH 7.4, 1 mM DTT) were added to wells containing 1 ul of various concentrations of compound or DMSO vehicle (3% final) in NUNC 384 well black plate. The reaction was initiated by the addition of MKK6-activated p38 (100 pM final) to give a total volume of 30 ul. The reaction was incubated for 120 minutes at room temperature, then terminated by the addition of 15 μl of 100 mM EDTA pH 7.4. Detection reagent (15 μl) in buffer (100 mM HEPES pH 7.4, 150 mM NaCl, 0.1% w/v BSA, 1 mM DTT) containing antiphosphothreonine-ATF2-71 polyclonal antibody (Cell Signalling Technology, Beverly Mass., USA) labelled with W-1024 europium chelate (Wallac OY, Turku, Finland), and APC-labelled streptavidin (Prozyme, San Leandro, Calif., USA) was added and the reaction was further incubated for 60 minutes at room temperature. The degree of phosphorylation of GST-ATF2 was measured using a Packard Discovery plate reader (Perkin-Elmer Life Sciences, Pangbourne, UK) as a ratio of specific 665 nm energy transfer signal to reference europium 620 nm signal. Time-Resolved Fluorescence Resonance Energy Transfer Kinase Low Volume Assay Recombinant human p38α was expressed as a His-tagged protein. To activate this protein, 3 μM unactivated p38α was incubated in 200 mM Hepes pH7.4, 625 mM NaCl, 1 mM DTT with 27 nM active MKK6 (Upstate), 1 mM ATP and 10 mM MgCl2 The activity of the MKK6-activated p38α was assessed using a time-resolved fluorescence resonance energy transfer (TR-FRET) assay. Biotinylated-GST-ATF2 (residues 19-96, 400 nM final), ATP (125 μM final) and MgCl2 ([…]) in assay buffer (40 mM HEPES pH 7.4, 1 mM DTT) were added to wells containing 0.1 μl of various concentrations of compound or DMSO vehicle (1.7% final) in Greiner low volume 384 well black plate. The reaction was initiated by the addition of MKK6-activated p38α (100 pM final) to give a total volume of 6 μl. The reaction was incubated for 120 minutes at room temperature, then terminated by the addition of 3 μl of detection reagent in buffer (100 mM HEPES pH 7.4, 150 mM NaCl, 0.1% w/v BSA, 1 mM DTT, 100 mM EDTA) containing antiphosphothreonine-ATF2-71 polyclonal antibody (Cell Signalling Technology, Beverly Mass., USA) labelled with W-1024 europium chelate (Wallac OY, Turku, Finland), and APC-labelled streptavidin (Prozyme, San Leandro, Calif., USA). The reaction was further incubated for 60 minutes at room temperature. The degree of phosphorylation of GST-ATF2 was measured using a BMG Rubystar plate reader (BMG, UK) as a ratio of specific 665 nm energy transfer signal to reference europium 620 nm signal. It is noted that there are two assay formats shown above for the Time-resolved fluorescence resonance energy transfer kinase assay. The only difference between these two assays is the volume used and the plate type. […] The results described herein may have been performed in either assay format and are not differentiated as to which. […] For purposes herein the HTRF assay and the Fluorescence anisotropy kinase binding assay: […]

T1 sequence (Q16539 whole entry): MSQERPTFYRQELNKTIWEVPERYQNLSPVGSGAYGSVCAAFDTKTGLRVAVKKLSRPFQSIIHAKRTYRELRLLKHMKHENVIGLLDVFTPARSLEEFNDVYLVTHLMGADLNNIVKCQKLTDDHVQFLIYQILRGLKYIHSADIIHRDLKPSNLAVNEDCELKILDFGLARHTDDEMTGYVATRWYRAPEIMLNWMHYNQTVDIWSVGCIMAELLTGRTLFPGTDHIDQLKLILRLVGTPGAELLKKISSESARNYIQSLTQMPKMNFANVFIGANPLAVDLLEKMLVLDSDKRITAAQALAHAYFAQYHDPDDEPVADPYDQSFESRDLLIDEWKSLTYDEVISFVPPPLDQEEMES

**Q.** How did the “pIC50, reported as active” value turn out when CCN(CC)CCCNc1nc(-c2cccc(C(=O)Nc3nccs3)c2C)c2ccc(=O)n(-c3c(F)cccc3F)c2n1 [150(d), 3-[2-{[3-(diethylamino)propyl]amino}-8-(2,6-difluorophenyl)-7-oxo-7,8-dihydropyrido[2,3-d]pyrimidin-4-yl]-2-methyl-N-1,3-thiazol-2-ylbenzamide] was run?
**A.** active

**Q.** Which “pIC50, reported as active” value does the source give for CCN(CC)CCCNc1nc(-c2cc(C(=O)O)cc(F)c2C)c2ccc(=O)n(-c3c(F)cccc3F)c2n1 [179(b), 3-[2-{[3-(diethylamino)propyl]amino}-8-(2,6-difluorophenyl)-7-oxo-7,8-dihydropyrido[2,3-d]pyrimidin-4-yl]-5-fluoro-4-methylbenzoic acid trifluoroacetate] here?
**A.** active

What follows are compounds tested on influx of neutrophils to the lung in LPS-challenged rats (assay: Rat LPS neutrophilia model). Conditions: intratracheal, LPS aerosol 100 ug/ml 15 min, lavage 4 hours later, in at least one of the range of conditions tested, significant p<0.05, nonsignificant p>0.05.
Format: in vivo
Method: The effect of compounds on the influx of neutrophils to the lung in LPS-challenged rats is evaluated as follows. The test compound is suspended in one of the following solutions: 0.5% tween 80/PBS, 0.5% tween 80/saline, 10% EtOH/saline (with pH adjusted to 2.0, or 8.0 with HCl, or unadjusted), Saline @ pH 2.0, 6.5 or 8.0, 0.5% Tragacanth, 1% DMSO/20% Encapsin/Saline, or acidified 5% Tragacanth. The suspension process may be aided by the use of a glass homogenizer. For intratracheal administration, the animals are anesthetized with inhaled isoflurane and placed in a supine position, the trachea is intubated with a steel gavage needle (1.5 inch, 22 gauge, small ball) or a Penn-Century Microsprayer Aerosolizer (model IA-IB) and 200 ul of dosing solution is delivered. The animals are visually monitored during the recovery process, which typically occurs within two minutes. It is noted that the test compounds may be alternatively administered via the microsprayer in a dry powder blend with a suitable excipient, such as lactose.
Rats treated with compound or vehicle (15 min-24 hours pretreatment) are exposed to an LPS aerosol (100 ug/ml) for 15 min. Four hours later the rats are euthanized with pentobarbital (100 mg/kg, i.p.) and the airways are lavaged with 5 washes of 5 ml of phosphate buffered saline. The harvested cells are stained (Diffquick) and counted to determine total and differential cell data. […] Inhibition of neutrophil levels relative to no compound controls is calculated based on the differential counts.
The data is obtained as % inhibition using a particular concentration and pretreat time.

**Q.** For Cc1ccc(C(=O)NC2CC2)cc1-c1nc(NCc2ncc[nH]2)nc2c1ccc(=O)n2-c1c(F)cccc1F [Example 23, N-cyclopropyl-3-{8-(2,6-difluorophenyl)-2-[(1H-imidazol-2-ylmethyl)amino]-7-oxo-7,8-dihydropyrido[2,3-d]pyrimidin-4-yl}-4-methylbenzamide], which “inhibition of neutrophilia (neutrophil levels in lung lavage relative to no compound controls)” value is on record?
**A.** statistically nonsignificant inhibition

**Q.** Which “inhibition of neutrophilia (neutrophil levels in lung lavage relative to no compound controls)” value does the source give for CCCNC(=O)c1ccc(C)c(-c2nc(N3CCC(N)CC3)nc3c2ccc(=O)n3-c2c(F)cccc2F)c1 [Example 69, 3-[2-(4-amino-1-piperidinyl)-8-(2,6-difluorophenyl)-7-oxo-7,8-dihydropyrido[2,3-d]pyrimidin-4-yl]-4-methyl-N-propylbenzamide] here?
**A.** statistically significant inhibition

**Q.** For Cc1ccc(C(=O)NCc2ccccc2)cc1-c1nc(N2CCC(N)CC2)nc2c1ccc(=O)n2-c1c(F)cccc1F [Example 71, 3-[2-(4-amino-1-piperidinyl)-8-(2,6-difluorophenyl)-7-oxo-7,8-dihydropyrido[2,3-d]pyrimidin-4-yl]-4-methyl-N-(phenylmethyl)benzamide], which “inhibition of neutrophilia (neutrophil levels in lung lavage relative to no compound controls)” value is on record?
**A.** statistically nonsignificant inhibition

**Q.** CCN(CC)CCCNc1nc(-c2cc(C(=O)NCC3CC3)ccc2C)c2ccc(=O)n(-c3c(F)cccc3F)c2n1 [Example 138, N-(cyclopropylmethyl)-3-[2-{[3-(diethylamino)propyl]amino}-8-(2,6-difluorophenyl)-7-oxo-7,8-dihydropyrido[2,3-d]pyridin-4-yl]-4-methylbenzamide trifluoroacetate] was tested. Which “inhibition of neutrophilia (neutrophil levels in lung lavage relative to no compound controls)” value did it give?
**A.** statistically nonsignificant inhibition

**Q.** Which “inhibition of neutrophilia (neutrophil levels in lung lavage relative to no compound controls)” value does the source give for CCCCNC(=O)c1ccc(C)c(-c2nc(N3CCC(N4CCC(C)CC4)CC3)nc3c2ccc(=O)n3-c2c(F)cccc2F)c1 [Example 167, N-butyl-3-[8-(2,6-difluorophenyl)-2-(4-methyl-1,4′-bipiperidin-1′-yl)-7-oxo-7,8-dihydropyrido[2,3-d]pyrimidin-4-yl]-4-methylbenzamide] here?
**A.** statistically significant inhibition

**Q.** With Cc1ccc(C(=O)NC(C)C)cc1-c1nc(N2CCC(N)CC2)nc2c1ccc(=O)n2-c1c(F)cccc1F [Example 68, 3-[2-(4-amino-1-piperidinyl)-8-(2,6-difluorophenyl)-7-oxo-7,8-dihydropyrido[2,3-d]pyrimidin-4-yl]-4-methyl-N-(1-methylethyl)benzamide] as the compound, how does the “inhibition of neutrophilia (neutrophil levels in lung lavage relative to no compound controls)” value read?
**A.** statistically significant inhibition

**Q.** How did the “inhibition of neutrophilia (neutrophil levels in lung lavage relative to no compound controls)” value turn out when Cc1ccc(C(=O)Nc2ccc(F)cc2)cc1-c1nc(N2CCC(N)CC2)nc2c1ccc(=O)n2-c1c(F)cccc1F [Example 72] was run?
**A.** statistically significant inhibition

**Q.** For Cc1ccc(C(=O)NC2CCC2)cc1-c1nc(N2CCC(N3CCC(C)CC3)CC2)nc2c1ccc(=O)n2-c1c(F)cccc1F [Example 175, N-cyclobutyl-3-[8-(2,6-difluorophenyl)-2-(4-methyl-1,4′-bipiperidin-1′-yl)-7-oxo-7,8-dihydropyrido[2,3-d]pyrimidin-4-yl]-4-methylbenzamide], which “inhibition of neutrophilia (neutrophil levels in lung lavage relative to no compound controls)” value is on record?
**A.** inactive

**Q.** How did the “inhibition of neutrophilia (neutrophil levels in lung lavage relative to no compound controls)” value turn out when CCNC(=O)c1ccc(C)c(-c2nc(N3CCC(N4CCC(C)CC4)CC3)nc3c2ccc(=O)n3-c2c(F)cccc2F)c1 [Example 173, 3-[8-(2,6-difluorophenyl)-2-(4-methyl-1,4′-bipiperidin-1′-yl)-7-oxo-7,8-dihydropyrido[2,3-d]pyrimidin-4-yl]-N-ethyl-4-methylbenzamide] was run?
**A.** statistically significant inhibition

**Q.** How did the “inhibition of neutrophilia (neutrophil levels in lung lavage relative to no compound controls)” value turn out when Cc1ccc(C(=O)NCCc2ccccc2)cc1-c1nc(NC2CC(C)(C)NC(C)(C)C2)nc2c1ccc(=O)n2-c1c(F)cccc1F [Example 28, 3-{8-(2,6-difluorophenyl)-7-oxo-2-[(2,2,6,6-tetramethyl-4-piperidinyl)amino]-7,8-dihydropyrido[2,3-d]pyrimidin-4-yl}-4-methyl-N-(2-phenylethyl)benzamide] was run?
**A.** statistically nonsignificant inhibition

**Q.** CCN(CC)CCCNc1nc(-c2cc(C(=O)NCCF)ccc2C)c2ccc(=O)n(-c3c(F)cccc3F)c2n1 [Example 133, 3-[2-{[3-(diethylamino)propyl]amino}-8-(2,6-difluorophenyl)-7-oxo-7,8-dihydropyrido[2,3-d]pyrimidin-4-yl]-N-(2-fluoroethyl)-4-methylbenzamidetrifluoroacetate] was tested. Which “inhibition of neutrophilia (neutrophil levels in lung lavage relative to no compound controls)” value did it give?
**A.** statistically significant inhibition

**Q.** Which “inhibition of neutrophilia (neutrophil levels in lung lavage relative to no compound controls)” value does the source give for CNCCNc1nc(-c2cc(C(=O)Nc3nccs3)ccc2C)c2ccc(=O)n(-c3c(F)cccc3F)c2n1 [Example 61, 3-(8-(2,6-difluorophenyl)-2-{[2-(methylamino)ethyl]amino}-7-oxo-7,8-dihydropyrido[2,3-d]pyrimidin-4-yl)-4-methyl-N-1,3-thiazol-2-ylbenzamide] here?
**A.** statistically significant inhibition

**Q.** How did the “inhibition of neutrophilia (neutrophil levels in lung lavage relative to no compound controls)” value turn out when CNCCNc1nc(-c2cc(C(=O)NCC3CC3)ccc2C)c2ccc(=O)n(-c3c(F)cccc3F)c2n1 [Example 4] was run?
**A.** statistically significant inhibition
